Values joined by “and” are separate entries in the source; they are usually repeats but may differ in a detail not shown here. Equal values may be shown once. Read-outs that look alike come from different tables or passages of the source.
Test system: Stat3-ER expressing A375 cells
Format: cell-based
Method: In order to understand Stat3's ability to affect cell proliferation and cell death, we have examined the profile of genes expressed upon Stat3 activation in A375 cells using oligonucleotide microarrays.
Briefly, microarray analysis was performed using HG U95A GeneChips™ (Affymetrix, Santa Clara, USA) essentially according to the manufacturer's instructions. […] RNA from three independent experiments was pooled and biotin-labeled cRNA probes were generated from each sample starting from 10 μg of total cellular RNA. The resulting biotinylated cRNAs were hybridized to the Affymetrix U95A oligonucleotide array containing more than 12,000 sequences and signals detected. Chip analysis was performed using the Affymetrix Microarray Suite v5 (target intensity 500 used for chip scaling) and GeneSpring 4.2.1 (Silicon Genetics). Changes in gene expression were assessed by looking for concordant changes between replicates using a signed Wilcoxon rank test (as recommended by Affymetrix).

**Q.** What does the source list for oncostatin M [OSM]?
**A.** expression change (fold): H. sapiens mRNA; cDNA DZFZp586N012: 1.5 and 1.6; expression change (fold): Absent in melanoma 2 (Avge of clones): 2.9; expression change (fold): Alpha-1-antichymotrypsin precursor (Avge of clones): 2.8; expression change (fold): Aquaporin 3 (Avge of clones): 4.1; expression change (fold): Brain-derived neurotrophic factor (Avge of clones): 4.8; expression change (fold): CCAAT/enhancer binding protein (C/EBP), delta (Avge of clones): 2.7; expression change (fold): Cathepsin L (Avge of clones): 2.8; expression change (fold): Cytokine receptor-like factor 1 (Avge of clones): 1.9; expression change (fold): Death-associated protein kinase 1 (Avge of clones): 5.2; expression change (fold): Ephrin A1 precursor (Avge of clones): 2.1; expression change (fold): Ets variant gene 6 (Avge of clones): 3.9; expression change (fold): Fibronectin (Avge of clones): 2.0; expression change (fold): Fibronectin 1, isoform 1 preproprotein (Avge of clones): 1.6; expression change (fold): Glycine dehydrogenase (decarboxylating, glycine decdarboxylase, glycine cleavage system protein P) (Avge of clones): 2.5; expression change (fold): I factor (complement) (Avge of clones): 2.3; expression change (fold): Insulin-like growth factor binding protein 3 (Avge of clones): 2.4; expression change (fold): Intercellular adhesion molecule 1 precursor (Avge of clones): 1.9; expression change (fold): Interferon induced transmembrane protein 1 (9-27) (Avge of clones): 1.4; expression change (fold): Interleukin 8 (Avge of clones): 0.5; expression change (fold): Jun B proto-oncogene (Avge of clones): 2.5; expression change (fold): KIAA0161 gene product (Avge of clones): 1.6; expression change (fold): KIAA0303 protein (Avge of clones): 3.5; expression change (fold): KIAA0500 protein (Avge of clones): 3.0; expression change (fold): Killer cell lectin-like receptor subfamily C, member 2 (Avge of clones): 2.7; expression change (fold): Killer cell lectin-like receptor subfamily C, member 3 isoform NKG2-E (Avge of clones): 3.6; expression change (fold): Kynureninase (L-kynurenine hydrolase) (Avge of clones): 2.2; expression change (fold): MHC class II transactivator (Avge of clones): 3.0; expression change (fold): MHC, class II, DQ alpha 1 precursor (Avge of clones): 2.4; expression change (fold): MHC, class II, DQ beta 1 (Avge of clones): 2.5; expression change (fold): Major vault protein (Avge of clones): 2.7; expression change (fold): Nicotinamide N-methyltransferase (Avge of clones): 2.4; expression change (fold): Niemann-Pick disease, type C1 (Avge of clones): 2.1; expression change (fold): Oncostatin M receptor (Avge of clones): 2.0; expression change (fold): Osteoprotegrin (Avge of clones): 2.9; expression change (fold): Prostatic acid phosphatase precursor (Avge of clones): 7.4; expression change (fold): Ras-induced senescence 1 (Avge of clones): 1.8; expression change (fold): Regenerating islet-derived 1 alpha (pancreatic stone protein, pancreatic thread protein) (Avge of clones): 3.0; expression change (fold): Regulator of G protein signalling 16 (Avge of clones): 2.9; expression change (fold): STAT induced STAT inhibitor 3 (Avge of clones): 10.7; expression change (fold): Secreted phosphoprotein 1 (osteopontin, bone sialoprotein 1, early T-lymphocyte activation 1) (Avge of clones): 7.5; expression change (fold): Serine (or cysteine) protease inhibitor, clade B (ovalbumin), member 3 (Avge of clones): 27.8; expression change (fold): Small inducible cytokine A2 (monocyte chemotactic protein 1) (Avge of clones): 1.2; expression change (fold): Solute carrier family 2 (facilitated glucose transporter), member 3 (Avge of clones): 2.3; expression change (fold): Stanniocalcin 1 (Avge of clones): 3.7; expression change (fold): Tyrosine phosphatase/TIGR = HG620-HT620 (Avge of clones): 1.2; expression change (fold): v-fos FBJ murine osteosarcoma viral gene homologue (Avge of clones): 3.7; expression change (fold): v-jun avian sarcoma virus 17 oncogene homologue (Avge of clones): 1.2; expression change (fold): v-maf musculoaponeurotic fibrosarcoma oncogene homologue (avian) (Avge of clones): 3.0; expression change (fold): Aquaporin 3 (Avge of clones, 2nd listing): 8.0; expression change (fold): Fibronectin 1, isoform 1 preproprotein (Avge of clones, 2nd listing): 1.5; expression change (fold): Insulin-like growth factor binding protein 3 (Avge of clones, 2nd listing): 2.0; expression change (fold): Interleukin 8 (Avge of clones, 2nd listing): 0.9; expression change (fold): Kynureninase (L-kynurenine hydrolase) (Avge of clones, 2nd listing): 1.5; expression change (fold): Oncostatin M receptor (Avge of clones, 2nd listing): 1.9; expression change (fold): Prostatic acid phosphatase precursor (Avge of clones, 2nd listing): 1.3; expression change (fold): Secreted phosphoprotein 1 (osteopontin, bone sialoprotein 1, early T-lymphocyte activation 1) (Avge of clones, 2nd listing): 4.6; expression change (fold): v-jun avian sarcoma virus 17 oncogene homologue (Avge of clones, 2nd listing): 1.5; expression change (fold): Kynureninase (L-kynurenine hydrolase) (Avge of clones, 3rd listing): 1.7; expression change (fold): Absent in melanoma 2 (Clone1): 2.7; expression change (fold): Alpha-1-antichymotrypsin precursor (Clone1): 3.1; expression change (fold): Aquaporin 3 (Clone1): 4.5; expression change (fold): Brain-derived neurotrophic factor (Clone1): 4.8; expression change (fold): CCAAT/enhancer binding protein (C/EBP), delta (Clone1): 3.9; expression change (fold): Cathepsin L (Clone1): 2.3; expression change (fold): Cytokine receptor-like factor 1 (Clone1): 3.0; expression change (fold): Death-associated protein kinase 1 (Clone1): 3.5; expression change (fold): Ephrin A1 precursor (Clone1): 1.3; expression change (fold): Ets variant gene 6 (Clone1): 3.9; expression change (fold): Fibronectin (Clone1): 0.9; expression change (fold): Fibronectin 1, isoform 1 preproprotein (Clone1): 1.2; expression change (fold): Glycine dehydrogenase (decarboxylating, glycine decdarboxylase, glycine cleavage system protein P) (Clone1): 2.5; expression change (fold): I factor (complement) (Clone1): 2.5; expression change (fold): Insulin-like growth factor binding protein 3 (Clone1): 2.6; expression change (fold): Intercellular adhesion molecule 1 precursor (Clone1): 1.7; expression change (fold): Interferon induced transmembrane protein 1 (9-27) (Clone1): 2.2; expression change (fold): Interleukin 8 (Clone1): 0.4; expression change (fold): Jun B proto-oncogene (Clone1): 2.7; expression change (fold): KIAA0161 gene product (Clone1): 1.5; expression change (fold): KIAA0303 protein (Clone1): 4.5; expression change (fold): KIAA0500 protein (Clone1): 2.3; expression change (fold): Killer cell lectin-like receptor subfamily C, member 2 (Clone1): 4.3; expression change (fold): Killer cell lectin-like receptor subfamily C, member 3 isoform NKG2-E (Clone1): 6.7; expression change (fold): Kynureninase (L-kynurenine hydrolase) (Clone1): 2.6; expression change (fold): MHC class II transactivator (Clone1): 3.4; expression change (fold): MHC, class II, DQ alpha 1 precursor (Clone1): 2.5; expression change (fold): MHC, class II, DQ beta 1 (Clone1): 2.4

Reference: US20080064027A1, “TEL/Etv6-mediated inhibition of cell proliferation” (priority 2002, published 2008)
